Test results: patent publication US11053204B2, “Pyrimidinyloxy benzene derivatives as herbicides” (FMC Corporation, priority 2015, dated 2021)

Legend:
Assay type in all cases: in vivo
[1] = tested on: nightshade (eastern black nightshade, Solanum ptycanthum); test: Test C preemergence, plant response rating
[2] = tested on: surinam grass (Brachiaria decumbens); test: Test C postemergence, plant response rating
Method in brief: (§1)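 Pre-emergence: seeds sown in loam soil–sand blend or silt loam and sprayed with test chemicals in a non-phytotoxic solvent mixture with surfactant. Post-emergence: plants 2 to 18 cm (1- to 4-leaf stage) in peat-based potting medium, same formulation. Greenhouse 13 to 15 d; visual rating 0 (no effect) to 100 (complete control) versus controls.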

[3] = tested on: pigweed, palmer (palmer pigweed, Amaranthus palmeri); test: Test C postemergence, plant response rating; conditions: for Pigweed, Palmer plant response rating: scale 0 to 100 (0 no effect, 100 complete control)
Method in brief: as §1

[4] = tested on: windgrass (Apera spica-venti); test: Test C postemergence, plant response rating
Method in brief: as §1

[5] = tested on: speedwell (bird's-eye speedwell, Veronica persica); test: Test C postemergence, plant response rating; conditions: for Speedwell plant response rating: scale 0 to 100 (0 no effect, 100 complete control)
Method in brief: as §1

[6] = tested on: buckwheat, wild (wild buckwheat, Polygonum convolvulus); test: Test C postemergence, plant response rating; conditions: for Buckwheat, Wild plant response rating: scale 0 to 100 (0 no effect, 100 complete control)
Method in brief: as §1

[7] = tested on: johnsongrass (Sorghum halepense); test: Test C postemergence, plant response rating; conditions: for Johnsongrass plant response rating: scale 0 to 100 (0 no effect, 100 complete control)
Method in brief: as §1

[8] = tested on: field poppy (Papaver rhoeas); test: Test C postemergence, plant response rating; conditions: for Field Poppy plant response rating: scale 0 to 100 (0 no effect, 100 complete control)
Method in brief: as §1

[9] = tested on: wild poinsettia (Euphorbia heterophylla); test: Test C postemergence, plant response rating; conditions: for Poinsettia, Wild plant response rating: scale 0 to 100 (0 no effect, 100 complete control)
Method in brief: as §1

[10] = tested on: Canada thistle (Cirsium arvense); test: Test C postemergence, plant response rating; conditions: for Canada Thistle plant response rating: scale 0 to 100 (0 no effect, 100 complete control)
Method in brief: as §1

[11] = tested on: geranium, cutleaf (cutleaf geranium, Geranium dissectum); test: Test C postemergence, plant response rating; conditions: for Geranium, Cutleaf plant response rating: scale 0 to 100 (0 no effect, 100 complete control)
Method in brief: as §1

[12] = tested on: field violet (Viola arvensis); test: Test C postemergence, plant response rating; conditions: for Field Violet plant response rating: scale 0 to 100 (0 no effect, 100 complete control)
Method in brief: as §1

[13] = tested on: nightshade (eastern black nightshade, Solanum ptycanthum); test: Test C postemergence, plant response rating; conditions: for Nightshade plant response rating: scale 0 to 100 (0 no effect, 100 complete control)
Method in brief: as §1

[14] = 125 g ai/ha, scale 0 to 100 (0 no effect, 100 complete control)

CCCCC(=O)c1c(Br)cccc1Oc1ncc(Cl)cn1 [Compound 79]
Plant response rating, Nightshade ([1]; 16 g ai/ha, scale 0 to 100): 30
Plant response rating, Nightshade ([1]; 31 g ai/ha, scale 0 to 100): 65
Plant response rating, Nightshade ([1]; 62 g ai/ha, scale 0 to 100): 80
Plant response rating, Nightshade ([1]; 125 g ai/ha, scale of 0 to 100): 95
Plant response rating, Surinam Grass ([2]; 16 g ai/ha, scale of 0 to 100): 25
Plant response rating, Surinam Grass ([2]; 31 g ai/ha, scale 0 to 100): 25
Surinam Grass plant response rating [2, 14]: 35
Plant response rating, Pigweed, Palmer ([3]; 16 g ai/ha, scale of 0 to 100): 60
Plant response rating, Pigweed, Palmer ([3]; 31 g ai/ha, scale 0 to 100): 80
Pigweed, Palmer plant response rating ([3]; 62 g ai/ha): 70
Pigweed, Palmer plant response rating ([3]; 125 g ai/ha): 85
Plant response rating, Windgrass ([4]; 16 g ai/ha, scale of 0 to 100): 20
Plant response rating, Windgrass ([4]; 31 g ai/ha, scale 0 to 100): 35
Windgrass plant response rating [4, 14]: 30
Plant response rating, Speedwell ([5]; 16 g ai/ha, scale of 0 to 100): 85
Plant response rating, Speedwell ([5]; 31 g ai/ha, scale 0 to 100): 90
Speedwell plant response rating ([5]; 62 g ai/ha): 98
Speedwell plant response rating ([5]; 125 g ai/ha): 100
Plant response rating, Buckwheat, Wild ([6]; 16 g ai/ha, scale of 0 to 100): 75
Plant response rating, Buckwheat, Wild ([6]; 31 g ai/ha, scale 0 to 100): 80
Buckwheat, Wild plant response rating ([6]; 62 g ai/ha): 85
Buckwheat, Wild plant response rating ([6]; 125 g ai/ha): 90
Plant response rating, Johnsongrass ([7]; 16 g ai/ha, scale of 0 to 100): 40
Plant response rating, Johnsongrass ([7]; 31 g ai/ha, scale 0 to 100): 65
Johnsongrass plant response rating ([7]; 62 g ai/ha): 60
Johnsongrass plant response rating ([7]; 125 g ai/ha): 85
Plant response rating, Field Poppy ([8]; 16 g ai/ha, scale of 0 to 100): 85
Plant response rating, Field Poppy ([8]; 31 g ai/ha, scale 0 to 100): 98
Field Poppy plant response rating ([8]; 62 g ai/ha): 100
Field Poppy plant response rating ([8]; 125 g ai/ha): 100
Plant response rating, Poinsettia, Wild ([9]; 16 g ai/ha, scale of 0 to 100): 30
Plant response rating, Poinsettia, Wild ([9]; 31 g ai/ha, scale 0 to 100): 75
Poinsettia, Wild plant response rating ([9]; 62 g ai/ha): 80
Poinsettia, Wild plant response rating ([9]; 125 g ai/ha): 85
Plant response rating, Canada Thistle ([10]; 16 g ai/ha, scale of 0 to 100): 55
Plant response rating, Canada Thistle ([10]; 31 g ai/ha, scale 0 to 100): 65
Canada Thistle plant response rating ([10]; 62 g ai/ha): 70
Canada Thistle plant response rating ([10]; 125 g ai/ha): 100
Plant response rating, Geranium, Cutleaf ([11]; 16 g ai/ha, scale of 0 to 100): 45
Plant response rating, Geranium, Cutleaf ([11]; 31 g ai/ha, scale 0 to 100): 50
Geranium, Cutleaf plant response rating ([11]; 62 g ai/ha): 55
Geranium, Cutleaf plant response rating ([11]; 125 g ai/ha): 65
Plant response rating, Field Violet ([12]; 16 g ai/ha, scale of 0 to 100): 70
Plant response rating, Field Violet ([12]; 31 g ai/ha, scale 0 to 100): 75
Field Violet plant response rating ([12]; 62 g ai/ha): 85
Field Violet plant response rating ([12]; 125 g ai/ha): 90
Plant response rating, Nightshade ([13]; 16 g ai/ha, scale of 0 to 100): 90
Plant response rating, Nightshade ([13]; 31 g ai/ha, scale 0 to 100): 95
Nightshade plant response rating ([13]; 62 g ai/ha): 95
Nightshade plant response rating ([13]; 125 g ai/ha): 100
